Key:
[1] = system: brain; experiment: Matured TTM-001 and TTM-002 variants, NGS enrichment in mouse brain; format: in vivo, mice; conditions: NGS fold-enrichment, mouse brain, relative to AAV9 control
[2] = system: brains, heart, liver, muscle, and DRG of the NHPs; experiment: Maturation of TTM-001 and TTM-002 capsids, NGS enrichment in NHP tissues; format: in vivo; conditions: relative to AAV9 control; for Fold Enrichment relative to AAV9, Brain (NHP): NGS fold-enrichment of RNA; for Fold Enrichment relative to AAV9, DRG (NHP) / Fold Enrichment relative to AAV9, Heart (NHP) / Fold Enrichment relative to AAV9, Liver DNA (NHP) / Fold Enrichment relative to AAV9, Liver RNA (NHP) / Fold Enrichment relative to AAV9, Muscle (NHP): NGS fold-enrichment
Summary of the method: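 Variants carry mutations within and flanking the loop IV peptide insert: positions 450–466 were triplet-randomized, while positions 449–466 received low-frequency point mutations. The combined pool went into two NHPs, and each peptide was scored by NGS enrichment ratio against AAV9.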

Sequence | Fold Enrichment relative to AAV9, Brain (Mouse) [1] [fold] | Fold Enrichment relative to AAV9, Brain (NHP) [2] [fold] | Fold Enrichment relative to AAV9, DRG (NHP) [2] [fold] | Fold Enrichment relative to AAV9, Heart (NHP) [2] [fold] | Fold Enrichment relative to AAV9, Liver DNA (NHP) [2] [fold] | Fold Enrichment relative to AAV9, Liver RNA (NHP) [2] [fold] | Fold Enrichment relative to AAV9, Muscle (NHP) [2] [fold]
KTINGHDSPHKSGRTQET | 7.270 | 81.599 | 0.000 | 0.062 | 0.137 | 0.000 | 0.000
KTINGHDSPHKSNAWQQT | 15.788 | 84.825 | 0.000 | 0.016 | 0.132 | 0.000 | 0.000
KTINGHDSPHKSRLNQPT | 5.598 | 92.883 | 0.000 | 0.070 | 1.075 | 0.904 | 0.050
KTINGHDSPHKSRQDQHT | 8.540 | 75.595 | 0.000 | 0.049 | 0.045 | 0.030 | 0.118
KTINGHDSPHKSRQSQHT | 8.324 | 88.544 | 0.499 | 0.046 | 0.032 | 0.059 | 0.000
KTINGHDSPHKSVQNHLN | 14.557 | 196.758 | 0.000 | 0.000 | 0.000 | 0.000 | 0.000
KTINGHDSPHKSVQTHQT | 7.519 | 77.309 | 0.237 | 0.062 | 0.116 | 0.000 | 0.000
KTINGHDSPHKSWVRQQT | 11.687 | 125.537 | 0.000 | 0.033 | 0.174 | 0.291 | 0.000
KTINGHDSPHKTGQNQPP | 8.865 | 77.357 | 0.000 | 0.149 | 0.096 | 0.000 | 0.000
KTINGHDSPHKTGQNQQK | 6.379 | 77.562 | 0.000 | 1.056 | 0.000 | 0.000 | 0.000
